Paper PMC3086245 (Emerging Infectious Diseases, 2010)

Test system: M2 of influenza viruses A (H1N1)
Conditions: almost all the ORVs

Structure (SMILES): NC12CC3CC(CC(C3)C1)C2 [amantadine]
- susceptibility by M2 sequencing (in words): sensitive
